This is an account of results in patent publication US20120142705A1, “ISATIN AND OXINDOLE COMPOUNDS” (priority 2010, published 2012).

This experiment concerns the target T1, Recombinant human liver GK1 (GST-GK) (Homo sapiens, UniProt P35557).
T1 construct: made in house; host or cells: E. coli
T1 sequence (P35557 1-466 isoform P35557-2): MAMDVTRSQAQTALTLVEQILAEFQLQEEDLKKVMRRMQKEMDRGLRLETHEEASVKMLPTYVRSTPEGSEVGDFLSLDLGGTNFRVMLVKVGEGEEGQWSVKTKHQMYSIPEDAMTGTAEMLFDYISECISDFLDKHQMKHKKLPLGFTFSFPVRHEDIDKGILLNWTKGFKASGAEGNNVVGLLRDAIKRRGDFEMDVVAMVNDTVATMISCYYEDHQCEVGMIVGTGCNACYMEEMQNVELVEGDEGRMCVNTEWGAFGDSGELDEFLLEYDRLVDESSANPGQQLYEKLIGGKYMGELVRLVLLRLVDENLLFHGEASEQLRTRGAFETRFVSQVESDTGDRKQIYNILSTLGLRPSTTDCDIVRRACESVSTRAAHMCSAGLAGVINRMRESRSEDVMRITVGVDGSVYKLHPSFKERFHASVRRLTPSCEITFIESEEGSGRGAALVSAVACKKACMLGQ
The experiment in a line: In vitro glucokinase activity, G6PDH-coupled spectrophotometric assay. Conditions: 5 mM D-glucose, 30° C.; for SC1.5 (concentration of activator that produced a 50% increase in the activity of GK): pH 7.1. In kind it is biochemical. The procedure: Glucokinase In Vitro Assay Protocol: Glucokinase (GK) was assayed by coupling the production of glucose-6-phosphate to the generation of NADH with glucose-6-phosphate dehydrogenase (G6PDH, 0.75-1 kunits/mg; Boehringer Mannheim, Indianapolis, Ind.) from Leuconostoc mesenteroides as the coupling enzyme (Scheme 2).
Recombinant human liver GK1 was expressed in E. coli as a glutathione S-transferase fusion protein (GST-GK) [Liang et al, 1995] and was purified by chromatography over a glutathione-Sepharose 4B affinity column using the procedure provided by the manufacturer (Amersham Pharmacia Biotech, Piscataway, N.J.).
The assay was conducted at 30° C. in a flat bottom 96-well tissue culture plate from Costar (Cambridge, Mass.) with a final incubation volume of 120 μL. The incubation reaction contained the following: 25 mM Hepes buffer (pH 7.1), 25 mM KCl, 5 mM D-glucose, 1 mM ATP, 1.8 mM NAD, 2 mM MgCl2, 1 μM sorbitol-6-phosphate, 1 mM dithiothreitol, test drug or 10% dimethylsulfoxide, ˜7 units/ml G6PDH, and GK (see below). All organic reagents were >98% pure and were from Boehringer Mannheim with the exceptions of D-glucose and Hepes which were from Sigma Chemical Co, St Louis, Mo. Test compounds were dissolved in dimethylsulfoxide and were added to the incubation reaction minus GST-GK in a volume of 12 μL to yield a final dimethylsulfoxide concentration of 10%. This mix was pre-incubated in the temperature controlled chamber of a SPECTRAmax 250 microplate spectrophotometer (Molecular Devices Corporation, Sunnyvale, Calif.) for 10 minutes to allow temperature equilibrium and then the reaction was started by the addition of 20 μL GST-GK.
After addition of enzyme, the increase in optical density (OD) at 340 nm was monitored spectrophotometrically to determine the rate of change (OD340 per min). The GK activity (OD340/min) in control wells (10% dimethylsulfoxide minus GK activators) was compared with the activity in wells containing test GK activators, and the concentration of activator that produced a 50% increase in the activity of GK, i.e., the SC1.5, was calculated.

On to `O=C1C(=O)N(C(CC2CCCC2)C(=O)Nc2cnccn2)c2ccc(OC(F)(F)F)cc21` (stereo not shown) [Example 29, 3-Cyclopentyl-2-(2,3-dioxo-5-trifluoromethoxy-2,3-dihydro-indol-1-yl)-N-pyrazin-2-yl-propionamide], for which the “SC1.5 (concentration of activator that produced a 50% increase in the activity of GK)” value came to 1.5 µM. On to `O=C1C(=O)N(C(CC2CCCC2)C(=O)Nc2ccccn2)c2ccc(OC(F)(F)F)cc21` (stereo not shown) [Example 30, 3-Cyclopentyl-2-(2,3-dioxo-5-trifluoromethoxy-2,3-dihydro-indol-1-yl)-N-pyridin-2-yl-propionamide], for which the “SC1.5 (concentration of activator that produced a 50% increase in the activity of GK)” value was found to be 0.33 µM. As to `Cn1ccc(NC(=O)C(CC2CCCC2)N2C(=O)C(=O)c3cc(OC(F)(F)F)ccc32)n1` (stereo not shown) [Example 31, 3-Cyclopentyl-2-(2,3-dioxo-5-trifluoromethoxy-2,3-dihydro-indol-1-yl)-N-(1-methyl-1H-pyrazol-3-yl)-propionamide], the “SC1.5 (concentration of activator that produced a 50% increase in the activity of GK)” value was found to be 1.65 µM.

Turning to `O=C1C(=O)N(C(CC2CCCC2)C(=O)Nc2nccs2)c2ccc(OC(F)(F)F)cc21` (stereo not shown) [Example 32, 3-Cyclopentyl-2-(2,3-dioxo-5-trifluoromethoxy-2,3-dihydro-indol-1-yl)-N-thiazol-2-yl-propionamide], the “SC1.5 (concentration of activator that produced a 50% increase in the activity of GK)” value is 0.76 µM. On the same count and under the same terms, the result for `O=C(Nc1ccccn1)C(CC1CCCC1)N1C(=O)Cc2cc(OC(F)(F)F)ccc21` (stereo not shown) [Example 33, 3-Cyclopentyl-2-(2-oxo-5-trifluoromethoxy-2,3-dihydro-indol-1-yl)-N-pyridin-2-yl-propionamide] reads 0.13 µM; that for `Cn1ccc(NC(=O)C(CC2CCCC2)N2C(=O)Cc3cc(OC(F)(F)F)ccc32)n1` (stereo not shown) [Example 34, 3-Cyclopentyl-N-(1-methyl-1H-pyrazol-3-yl)-2-(2-oxo-5-trifluoromethoxy-2,3-dihydro-indol-1-yl)-propionamide], 1.07 µM; that for `O=C(Nc1nccs1)C(CC1CCCC1)N1C(=O)Cc2cc(OC(F)(F)F)ccc21` (stereo not shown) [Example 35, 3-Cyclopentyl-2-(2-oxo-5-trifluoromethoxy-2,3-dihydro-indol-1-yl)-N-thiazol-2-yl-propionamide], 0.49 µM. Consider `O=C(Nc1cnccn1)C(CC1CCCC1)N1C(=O)Cc2cc(OC(F)(F)F)ccc21` (stereo not shown) [Example 36, 3-Cyclopentyl-2-(2-oxo-5-trifluoromethoxy-2,3-dihydro-indol-1-yl)-N-pyrazin-2-yl-propionamide], for which the “SC1.5 (concentration of activator that produced a 50% increase in the activity of GK)” value was found to be 0.63 µM.

For the molecule `CC(C)CC(C(=O)Nc1cnccn1)N1C(=O)C(=O)c2cc(OC(F)(F)F)ccc21` (stereo not shown) [Example 37, 2-(2,3-Dioxo-5-trifluoromethoxy-2,3-dihydro-indol-1-yl)-4-methyl-pentanoic acid pyrazin-2-ylamide], the “SC1.5 (concentration of activator that produced a 50% increase in the activity of GK)” value worked out at 19.72 µM.

For the molecule `CC(C)CC(C(=O)Nc1ccccn1)N1C(=O)C(=O)c2cc(OC(F)(F)F)ccc21` (stereo not shown) [Example 38, 2-(2,3-Dioxo-5-trifluoromethoxy-2,3-dihydro-indol-1-yl)-4-methyl-pentanoic acid pyridin-2-ylamide], the “SC1.5 (concentration of activator that produced a 50% increase in the activity of GK)” value amounted to 2.57 µM. As to `CC(C)CC(C(=O)Nc1ccn(C)n1)N1C(=O)C(=O)c2cc(OC(F)(F)F)ccc21` (stereo not shown) [Example 39, 2-(2,3-Dioxo-5-trifluoromethoxy-2,3-dihydro-indol-1-yl)-4-methyl-pentanoic acid (1-methyl-1H-pyrazol-3-yl)-amide], the “SC1.5 (concentration of activator that produced a 50% increase in the activity of GK)” value came to 21.28 µM. Take `CC(C)CC(C(=O)Nc1nccs1)N1C(=O)C(=O)c2cc(OC(F)(F)F)ccc21` (stereo not shown) [Example 40, 2-(2,3-Dioxo-5-trifluoromethoxy-2,3-dihydro-indol-1-yl)-4-methyl-pentanoic acid thiazol-2-ylamide]: the “SC1.5 (concentration of activator that produced a 50% increase in the activity of GK)” value is 5.97 µM. As to `CC(C)CC(C(=O)Nc1nccs1)N1C(=O)Cc2cc(OC(F)(F)F)ccc21` (stereo not shown) [Example 41, 4-Methyl-2-(2-oxo-5-trifluoromethoxy-2,3-dihydro-indol-1-yl)-pentanoic acid thiazol-2-ylamide], the “SC1.5 (concentration of activator that produced a 50% increase in the activity of GK)” value was found to be 2.81 µM. For `CC(C)CC(C(=O)Nc1ccn(C)n1)N1C(=O)Cc2cc(OC(F)(F)F)ccc21` (stereo not shown) [Example 42, 4-Methyl-2-(2-oxo-5-trifluoromethoxy-2,3-dihydro-indol-1-yl)-pentanoic acid (1-methyl-1H-pyrazol-3-yl)-amide], the “SC1.5 (concentration of activator that produced a 50% increase in the activity of GK)” value was determined as 8.12 µM. The same measure, in the same setting: for `CC(C)CC(C(=O)Nc1ccccn1)N1C(=O)Cc2cc(OC(F)(F)F)ccc21` (stereo not shown) [Example 43, 4-Methyl-2-(2-oxo-5-trifluoromethoxy-2,3-dihydro-indol-1-yl)-pentanoic acid pyridin-2-ylamide] the value was 1.41 µM; for `CC(C)CC(C(=O)Nc1cnccn1)N1C(=O)Cc2cc(OC(F)(F)F)ccc21` (stereo not shown) [Example 44, 4-Methyl-2-(2-oxo-5-trifluoromethoxy-2,3-dihydro-indol-1-yl)-pentanoic acid pyrazin-2-ylamide], 3.67 µM; for `COc1ccc2c(c1)C(=O)C(=O)N2C(CC1CCCC1)C(=O)Nc1cnccn1` (stereo not shown) [Example 45, 3-Cyclopentyl-2-(5-methoxy-2,3-dioxo-2,3-dihydro-indol-1-yl)-N-pyrazin-2-yl-propionamide], 12.29 µM. For the molecule `COc1ccc2c(c1)C(=O)C(=O)N2C(CC1CCCC1)C(=O)Nc1ccccn1` (stereo not shown) [Example 46, 3-Cyclopentyl-2-(5-methoxy-2,3-dioxo-2,3-dihydro-indol-1-yl)-N-pyridin-2-yl-propionamide], the “SC1.5 (concentration of activator that produced a 50% increase in the activity of GK)” value stood at 2.32 µM.

For the molecule `COc1ccc2c(c1)C(=O)C(=O)N2C(CC1CCCC1)C(=O)Nc1ccn(C)n1` (stereo not shown) [Example 47, 3-Cyclopentyl-2-(5-methoxy-2,3-dioxo-2,3-dihydro-indol-1-yl)-N-(1-methyl-1H-pyrazol-3-yl)-propionamide], the “SC1.5 (concentration of activator that produced a 50% increase in the activity of GK)” value was found to be 23.88 µM. As to `COc1ccc2c(c1)C(=O)C(=O)N2C(CC1CCCC1)C(=O)Nc1nccs1` (stereo not shown) [Example 48, 3-Cyclopentyl-2-(5-methoxy-2,3-dioxo-2,3-dihydro-indol-1-yl)-N-thiazol-2-yl-propionamide], the “SC1.5 (concentration of activator that produced a 50% increase in the activity of GK)” value turned out to be 5.48 µM. Turning to `COc1ccc2c(c1)CC(=O)N2C(CC1CCCC1)C(=O)Nc1ccccn1` (stereo not shown) [Example 49, 3-Cyclopentyl-2-(5-methoxy-2-oxo-2,3-dihydro-indol-1-yl)-N-pyridin-2-yl-propionamide], the “SC1.5 (concentration of activator that produced a 50% increase in the activity of GK)” value came to 1.74 µM. For `COc1ccc2c(c1)CC(=O)N2C(CC1CCCC1)C(=O)Nc1ccn(C)n1` (stereo not shown) [Example 50, 3-Cyclopentyl-2-(5-methoxy-2-oxo-2,3-dihydro-indol-1-yl)-N-(1-methyl-1H-pyrazol-3-yl)-propionamide], the “SC1.5 (concentration of activator that produced a 50% increase in the activity of GK)” value was determined as 8.39 µM.

As to `COc1ccc2c(c1)CC(=O)N2C(CC1CCCC1)C(=O)Nc1nccs1` (stereo not shown) [Example 51, 3-Cyclopentyl-2-(5-methoxy-2-oxo-2,3-dihydro-indol-1-yl)-N-thiazol-2-yl-propionamide], the “SC1.5 (concentration of activator that produced a 50% increase in the activity of GK)” value was found to be 3.6 µM. In the case of `COc1ccc2c(c1)CC(=O)N2C(CC1CCCC1)C(=O)Nc1cnccn1` (stereo not shown) [Example 52, 3-Cyclopentyl-2-(5-methoxy-2-oxo-2,3-dihydro-indol-1-yl)-N-pyrazin-2-yl-propionamide], the “SC1.5 (concentration of activator that produced a 50% increase in the activity of GK)” value came to 4.76 µM. As usually defined, the fold induction is the ratio of treated to control signal. As for `COc1ccc2c(c1)C(=O)C(=O)N2C(CC(C)C)C(=O)Nc1cnccn1` (stereo not shown) [Example 53, 2-(5-Methoxy-2,3-dioxo-2,3-dihydro-indol-1-yl)-4-methyl-pentanoic acid pyrazin-2-ylamide], the fold induction at 30 µM (@ 30 uM) was 1.16.
